The values that follow come from ChEMBL document CHEMBL1201862, “PubChem BioAssay data set” (2004).

Structures are written as SMILES.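 96-well plates; 48 h exposure; 5 concentrations. Endpoints by linear interpolation between flanking doses. Not reached: highest tested concentration assigned. GI50 is the concentration that inhibits growth by half.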 Activity calls are given as the source filed them. No stated cut-off is given here; in the data, active = GI50 up to about 1.1 µM and inactive = higher.

Test systems include MDA-MB-435; SK-MEL-28; COLO 205; K562; HCT-15; 786-0; MOLT-4; SK-MEL-5; SNB-19; UACC-257; CCRF-CEM; M14; OVCAR-3; TK-10; SK-OV-3; SF-295; MDA-N; ACHN; PC-3; MDA-MB-231.
Common to all, as to experiment: inhibition of tumour cell growth, NCI panel, 48 h

In the case of `O=c1c2c3c(sc2nc2n1N=CN(c1ccc(F)cc1)C2)CCCC3`, the GI50 with MDA-MB-435 was > 100 µM (inactive); in the assay on SK-MEL-28, > 100 µM (inactive); with COLO 205, > 100 µM (inactive); in the assay on K562, > 100 µM (inactive); with HCT-15, above 100 µM; with 786-0, > 100 µM (inactive). Moreover, the GI50 in the assay with MOLT-4, in the assay on SK-MEL-5, with SNB-19, in the assay on UACC-257, in the assay with CCRF-CEM and with M14 was > 100 µM (inactive) in each case. For the same compound, the GI50 in the assay with OVCAR-3, in the assay with TK-10, in the assay on SK-OV-3, in the assay on SF-295, with MDA-N and in the assay on ACHN was > 100 µM (inactive) in each case. The GI50 in the assay with PC-3 and in the assay with MDA-MB-231 was > 100 µM (inactive) throughout.

As for `C=CCOc1ccc(C2(O)c3ccccc3C3=NCCCN32)cc1` (stereo not given), the GI50 was 30.1 µM (inactive) in the assay with MDA-MB-435; 24.5 µM (inactive) in the assay with SK-MEL-28; 19.9 µM (inactive) in the assay with COLO 205; 32.4 µM (inactive) in the assay on K562; above 62.2 µM in the assay with HCT-15; 38.3 µM (inactive) in the assay on 786-0. Moreover, the GI50 is 33.2 µM (inactive) with MOLT-4; 22.1 µM (inactive) in the assay on SK-MEL-5; 47.8 µM (inactive) in the assay with SNB-19; 21.4 µM (inactive) in the assay with UACC-257; 38 µM (inactive) in the assay with CCRF-CEM; 18.1 µM (inactive) in the assay with M14. The GI50 in the assay on OVCAR-3 was 46.3 µM (inactive); in the assay with TK-10, > 100 µM (inactive); in the assay with SK-OV-3, > 95.9 µM (inactive); in the assay on SF-295, 51.5 µM (inactive); in the assay with MDA-N, 36.1 µM (inactive); in the assay with ACHN, 41.6 µM (inactive). Further, the GI50 in the assay with PC-3 is 33.5 µM (inactive); in the assay on MDA-MB-231, > 63 µM (inactive).

In the case of `O=[N+]([O-])c1ccc(Cl)cc1C1ON=C(c2ccccc2)N1C12CC3CC(CC(C3)C1)C2` (stereo not given), the GI50 with MDA-MB-435 was > 100 µM (inactive); in the assay with SK-MEL-28, > 100 µM (inactive); with COLO 205 it was > 100 µM (inactive); with K562, > 100 µM (inactive); in the assay on HCT-15, above 100 µM; in the assay on 786-0 it was > 100 µM (inactive). Further, the GI50 in the assay with MOLT-4, in the assay with SK-MEL-5, in the assay with SNB-19, with UACC-257, in the assay on CCRF-CEM and in the assay on M14 was > 100 µM (inactive) throughout. Also, the GI50 in the assay on OVCAR-3 is 97.7 µM (inactive); in the assay with TK-10 it was > 100 µM (inactive); in the assay with SK-OV-3, > 100 µM (inactive); with SF-295 it was > 100 µM (inactive); in the assay on MDA-N, > 100 µM (inactive); with ACHN, > 100 µM (inactive). Moreover, the GI50 in the assay with PC-3 and with MDA-MB-231 was > 100 µM (inactive) throughout.

As for `Cc1ccc2c(c1)CN(C(=O)CCC(=O)OCc1ccccc1)c1ccc(C)cc1CN2C(=O)CCC(=O)OCc1ccccc1`, the GI50 in the assay on MDA-MB-435 was > 100 µM (inactive); in the assay on SK-MEL-28, > 100 µM (inactive); with COLO 205 it was > 100 µM (inactive); with K562, > 100 µM (inactive); in the assay with HCT-15 it was above 100 µM; with 786-0, > 90.8 µM (inactive). Besides, the GI50 with MOLT-4, in the assay with SK-MEL-5, in the assay on SNB-19, in the assay with UACC-257, in the assay with CCRF-CEM and in the assay on M14 was > 100 µM (inactive) throughout. The GI50 in the assay on OVCAR-3 is > 100 µM (inactive); with TK-10 it was > 100 µM (inactive); in the assay with SK-OV-3, > 100 µM (inactive); in the assay on SF-295, 98.6 µM (inactive); with MDA-N, > 100 µM (inactive); in the assay with ACHN it was > 100 µM (inactive). In addition, the GI50 in the assay with PC-3 and in the assay with MDA-MB-231 was > 100 µM (inactive) throughout.

Take `Nc1nc(NCc2ccccc2)cc(NCc2ccccc2)n1`: the GI50 with MDA-MB-435 is 2.48 µM (inactive); with SK-MEL-28, 12 µM (inactive); in the assay with COLO 205, 2.97 µM (inactive); in the assay on K562, 5.75 µM (inactive); in the assay on HCT-15, 3.52 µM; with 786-0, 4.92 µM (inactive). Besides, the GI50 in the assay on MOLT-4 was 7.18 µM (inactive); in the assay on SK-MEL-5 it was 3.71 µM (inactive); in the assay with SNB-19, 8.39 µM (inactive); in the assay with UACC-257, 5.69 µM (inactive); with CCRF-CEM, 4.24 µM (inactive); in the assay with M14 it was 10.5 µM (inactive). In addition, the GI50 was 3.69 µM (inactive) with OVCAR-3; 8.02 µM (inactive) in the assay on TK-10; 9.08 µM (inactive) in the assay with SK-OV-3; 4.91 µM (inactive) with SF-295; 1.14 µM (inactive) in the assay on MDA-N; 7.26 µM (inactive) in the assay with ACHN. Besides, the GI50 was 3.64 µM (inactive) with PC-3 and 3.49 µM (inactive) in the assay on MDA-MB-231.

`O=C(Nc1ccccn1)c1cc2c(cc1Cl)Sc1nccn1S2(=O)=O`: the GI50 in the assay with MDA-MB-435 is 27.9 µM (inactive); in the assay on SK-MEL-28 it was 44.3 µM (inactive); in the assay on COLO 205, 33.5 µM (inactive); with K562, 32.3 µM (inactive); in the assay on HCT-15 it was 30.7 µM; in the assay with 786-0, 35.1 µM (inactive). The GI50 is 31.3 µM (inactive) in the assay on MOLT-4; 25.6 µM (inactive) in the assay with SK-MEL-5; 56.1 µM (inactive) in the assay with SNB-19; 33.7 µM (inactive) in the assay with UACC-257; 22.5 µM (inactive) in the assay with CCRF-CEM; 48.9 µM (inactive) in the assay with M14. In addition, the GI50 was 26.7 µM (inactive) in the assay with OVCAR-3; 33.4 µM (inactive) in the assay on TK-10; 38.1 µM (inactive) with SK-OV-3; 36.6 µM (inactive) in the assay on SF-295; 36.3 µM (inactive) in the assay on MDA-N; 32.1 µM (inactive) in the assay with ACHN. The GI50 was 44.8 µM (inactive) with PC-3 and 21.1 µM (inactive) in the assay on MDA-MB-231.

With `C1CCN(CCC2CCCCN2)CC1` (stereo not given), the GI50 with MDA-MB-435 is > 100 µM (inactive); in the assay on SK-MEL-28 it was > 100 µM (inactive); in the assay on COLO 205, > 100 µM (inactive); with K562 it was > 100 µM (inactive); in the assay on HCT-15 it was above 100 µM; in the assay with 786-0 it was > 100 µM (inactive). The GI50 in the assay on MOLT-4, in the assay with SK-MEL-5, in the assay with SNB-19, in the assay on UACC-257, in the assay with CCRF-CEM and in the assay on M14 was > 100 µM (inactive) in each case. For the same compound, the GI50 in the assay with OVCAR-3, in the assay with TK-10, in the assay on SK-OV-3, in the assay on SF-295, in the assay on MDA-N and in the assay with ACHN was > 100 µM (inactive) throughout. In addition, the GI50 in the assay on PC-3 and in the assay on MDA-MB-231 was > 100 µM (inactive) throughout.
